Assay results from patent US20210269440A1 (BETTA PHARMACEUTICALS CO., LTD, priority 2018, published 2021).

Target: T1, PD-1/PD-L1 protein/protein interaction (Homo sapiens, UniProt Q9NZQ7)
T1 construct: Recombinant human PD-L1 protein (19-238) with a His-tag at the C-terminus; purchased AcroBiosystems PD1-H5229 (PD-L1); PD1-H5257 (PD-1)
Test: PD-1/PD-L1 homogenous time-resolved fluorescence (HTRF) binding assay
Procedure: Resolved Fluorescence (HTRF) Binding Assay
The assays were conducted in a standard black 384-well polystyrene plate with a final volume of […]. Inhibitors were first serially diluted in DMSO and then added to the plate wells before the addition of other reaction components. The final concentration of DMSO in the assay was 1%. The assays were carried out at 25° C. in the PBS buffer (pH 7.4) with 0.05% Tween-20 and 0.1% BSA. […] Plates were centrifuged and proteins were preincubated with inhibitors for 40 min. The incubation was followed by the addition of 10 μL of HTRF detection buffer supplemented with Europium cryptate-labeled anti-human IgG (PerkinElmer-AD0212) specific for Fc and anti-His antibody conjugated to SureLight®—Allophycocyanin (APC, PerkinElmer-AD0059H). After centrifugation, the plate was incubated at 25° C. for 60 min. […] Final concentrations in the assay were […] PD1, 10 nM PD-L1, 1 nM europium anti-human IgG and 20 nM anti-His-Allophycocyanin. IC50 determination was performed by fitting the curve of percent control activity versus the log of the inhibitor concentration using the GraphPad Prism 5.0 software.

T1 sequence (Q9NZQ7 19-238): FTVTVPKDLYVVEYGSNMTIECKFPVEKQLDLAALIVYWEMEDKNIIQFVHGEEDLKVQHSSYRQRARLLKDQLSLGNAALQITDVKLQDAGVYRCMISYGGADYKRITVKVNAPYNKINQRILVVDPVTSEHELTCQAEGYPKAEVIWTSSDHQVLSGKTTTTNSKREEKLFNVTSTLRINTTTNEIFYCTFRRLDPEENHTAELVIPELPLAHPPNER

IC50 [nM] | Compound
< 2 | Cc1c(Nc2nccc3cc(CN4CCCCC4C(=O)O)cnc23)cccc1-c1cccc(OCCCNCC(=O)O)c1C (centres unmarked) [Compound 28, 1-((8-((3′-(3-((carboxymethyl)amino)propoxy)-2,2′-dimethyl-[1,1′-biphenyl]-3-yl)amino)-1,7-naphthyridin-3-yl)methyl)piperidine-2-carboxylic acid]
2 to 10 | Cc1c(Nc2nccc3cc(CN4CCCCC4C(=O)O)cnc23)cccc1-c1cccc(OCCCN2CCCC2C(=O)O)c1C (centres unmarked) [Compound 29, 1-((8-((3′-(3-(2-carboxypyrrolidin-1-yl)propoxy)-2,2′-dimethyl-[1,1′-biphenyl]-3-yl)amino)-1,7-naphthyridin-3-yl)methyl)piperidine-2-carboxylic acid]
2 to 10 | Cc1c(Nc2nccc3cc(CN4CCCCC4C(=O)O)cnc23)cccc1-c1cccc(OCCCN2CCC(C(=O)O)CC2)c1C (centres unmarked) [Compound 30, 1-((8-((3′-(3-(4-carboxypiperidin-1-yl)propoxy)-2,2′-dimethyl-[1,1′-biphenyl]-3-yl)amino)-1,7-naphthyridin-3-yl)methyl)piperidine-2-carboxylic acid]
10 to 150 | Cc1c(Nc2nccc3cc(CN4CCCCC4C(=O)O)cnc23)cccc1-c1cccc(OCCN2CCOCC2)c1C (centres unmarked) [Compound 31, 1-((8-((2,2′-dimethyl-3′-(2-morpholinoethoxy)-[1,1′-biphenyl]-3-yl)amino)-1,7-naphthyridin-3-yl)methyl)piperidine-2-carboxylic acid]
> 150 | Cc1c(Nc2nccc3cc(CN4CCCCC4C(=O)O)cnc23)cccc1-c1ccc2ccc(OCCN3CCOCC3)cc2c1 (centres unmarked) [Compound 32, 1-((8-((2-methyl-3-(7-(2-morpholinoethoxy)naphthalen-2-yl)phenyl)amino)-1,7-naphthyridin-3-yl)methyl)piperidine-2-carboxylic acid]
< 2 | Cc1c(Nc2nccc3cc(CN4CCCCC4C(=O)O)cnc23)cccc1-c1cccc(OCCCNC2COC2)c1 (centres unmarked) [Compound 33, 1-((8-((2-methyl-3′-(3-(oxetan-3-ylamino)propoxy)-[1,1′-biphenyl]-3-yl)amino)-1,7-naphthyridin-3-yl)methyl)piperidine-2-carboxylic acid]
> 150 | Cc1c(Nc2nccc3cc(CN4CCCCC4C(=O)O)cnc23)cccc1-c1cccc2c1ccn2CCCN1CCOCC1 (centres unmarked) [Compound 34, 1-((8-((2-methyl-3-(1-(3-morpholinopropyl)-1H-indol-4-yl)phenyl)amino)-1,7-naphthyridin-3-yl)methyl)piperidine-2-carboxylic acid]
> 150 | Cc1c(Nc2nccc3cc(CN4CCCCC4C(=O)O)cnc23)cccc1-c1ccc2cc(CCN3CCOCC3)[nH]c2c1 (centres unmarked) [Compound 35, 1-((8-((2-methyl-3-(2-(2-morpholinoethyl)-1H-indol-6-yl)phenyl)amino)-1,7-naphthyridin-3-yl)methyl)piperidine-2-carboxylic acid]
2 to 10 | Cc1c(Nc2nccc3cc(CN4CCCCC4C(=O)O)cnc23)cccc1-c1cccc(OCCCN2CCOCC2)c1 (centres unmarked) [Compound 36, 1-((8-((2-methyl-3′-(3-morpholinopropoxy)-[1,1′-biphenyl]-3-yl)amino)-1,7-naphthyridin-3-yl)methyl)piperidine-2-carboxylic acid]
2 to 10 | Cc1c(Nc2nccc3cc(CN4CCCCC4C(=O)O)cnc23)cccc1-c1cccc(OCCCN2CCOCC2)c1F (centres unmarked) [Compound 37, 1-((8-((2′-fluoro-2-methyl-3′-(3-morpholinopropoxy)-[1,1′-biphenyl]-3-yl)amino)-1,7-naphthyridin-3-yl)methyl)piperidine-2-carboxylic acid]
2 to 10 | Cc1c(Nc2nccc3cc(CN4CCCCC4C(=O)O)cnc23)cccc1-c1cccc(OCCCN2CCOCC2)c1Cl (centres unmarked) [Compound 38, 1-((8-((2′-chloro-2-methyl-3′-(3-morpholinopropoxy)-[1,1′-biphenyl]-3-yl)amino)-1,7-naphthyridin-3-yl)methyl)piperidine-2-carboxylic acid]
